Experimental data: patent publication US20140357718A1 (priority 2013, published 2014)
Read-outs that look alike come from different tables or passages of the source.

Columns and labels:
Type in all cases: cell-based
[1] = system: Clostridium perfringens; details: C. perfringens, 23 h, 40° C., anaerobic
[2] = system: Campylobacter jejuni; test: Bacterial growth in pure culture with test composition (SYBR Green fluorescence); details: C. jejuni, 19 h, 40° C., anaerobic
[3] = system: Escherichia coli; test: Bacterial growth in pure culture with test composition (turbidity 660 nm); details: E. coli, 9 h, 40° C., anaerobic
[4] = system: Lactobacillus crispatus; test: as above; details: L. crispatus, 23 h, 40° C., anaerobic
[5] = free pH, 0.01% (w/v) composition
[6] = free pH, 0.1% (w/v) composition
[7] = free pH, 0.3% (w/v) composition
[8] = pH 6.5 (neutralised with NaOH), 0.01% (w/v) composition
[9] = pH 6.5 (neutralised with NaOH), 0.1% (w/v) composition
[10] = pH 6.5 (neutralised with NaOH), 0.3% (w/v) composition

**Q.** For `O=CO` [Composition C, formic acid], which “Growth of Indicator Bacteria (% of Growth Control)” value (shortened to “Growth … (% of Growth Control)”) [1, 5] is on record?
**A.** Its value is 75%.

**Q.** What about the “Growth … (% of Growth Control)” value [1, 6] of the same compound?
**A.** The value was 20%.

**Q.** What about the “Growth … (% of Growth Control)” value [1, 7] of the same compound?
**A.** The value was 15%.

**Q.** And the “Growth … (% of Growth Control)” value [1, 8]?
**A.** The value was 100%.

**Q.** What about the “Growth … (% of Growth Control)” value [1, 9] of the same compound?
**A.** Its value is 65%.

**Q.** What about the “Growth … (% of Growth Control)” value [1, 10] of the same compound?
**A.** The value was 60%.

**Q.** And the “Growth … (% of Growth Control)” value [2, 5]?
**A.** The value was 170%.

**Q.** And the “Growth … (% of Growth Control)” value [2, 6]?
**A.** The value was 20%.

**Q.** And the “Growth … (% of Growth Control)” value [2, 7]?
**A.** The value was 10%.

**Q.** And the “Growth … (% of Growth Control)” value [2, 8]?
**A.** The value was 170%.

**Q.** And the “Growth … (% of Growth Control)” value [2, 9]?
**A.** The value was 115%.

**Q.** What about the “Growth … (% of Growth Control)” value [2, 10] of the same compound?
**A.** The value was 65%.

**Q.** What about the “Growth … (% of Growth Control)” value [3, 5] of the same compound?
**A.** The value was 80%.

**Q.** What about the “Growth … (% of Growth Control)” value [3, 6] of the same compound?
**A.** Its value is 20%.

**Q.** And the “Growth … (% of Growth Control)” value [3, 7]?
**A.** The value was 15%.

**Q.** And the “Growth … (% of Growth Control)” value [3, 8]?
**A.** Its value is 110%.

**Q.** What about the “Growth … (% of Growth Control)” value [3, 10] of the same compound?
**A.** Its value is 45%.

**Q.** What about the “Growth … (% of Growth Control)” value [4, 5] of the same compound?
**A.** The value was 95%.

**Q.** And the “Growth … (% of Growth Control)” value [4, 6]?
**A.** Its value is 90%.

**Q.** What about the “Growth … (% of Growth Control)” value [4, 7] of the same compound?
**A.** Its value is 75%.

**Q.** What about the “Growth … (% of Growth Control)” value [4, 8] of the same compound?
**A.** Its value is 120%.

**Q.** And the “Growth … (% of Growth Control)” value [4, 9]?
**A.** Its value is 115%.

**Q.** And the “Growth … (% of Growth Control)” value [4, 10]?
**A.** The value was 95%.
